Biological target: T1, FL-C7 (full-length caspase-7) (Homo sapiens, UniProt P55210)
T1 construct: the p37 band as the full-length caspase-7 with intact N-terminus (FL-C7); endogenous in cells
T1 sequence (P55210 1-303): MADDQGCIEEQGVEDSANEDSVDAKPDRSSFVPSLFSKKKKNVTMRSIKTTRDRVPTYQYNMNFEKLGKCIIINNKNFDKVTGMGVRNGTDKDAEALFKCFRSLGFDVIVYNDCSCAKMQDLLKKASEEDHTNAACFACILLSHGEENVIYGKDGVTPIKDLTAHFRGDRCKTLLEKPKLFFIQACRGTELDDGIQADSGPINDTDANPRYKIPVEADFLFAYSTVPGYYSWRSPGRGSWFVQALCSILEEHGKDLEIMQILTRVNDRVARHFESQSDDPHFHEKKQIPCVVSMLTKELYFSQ
Assay: Inhibitor specificity in hypotonic 293 extracts, full-length caspase-7
Format: biochemical
Conditions: inhibitor 20 μM for 5 min, then KMB01 30 min
Source text: FIGS. 6 A-E illustrate that full-length active caspase-7 has unique inhibitor specificity and is processed to mature forms by downstream executioner caspases. (A) The caspase-3 specific inhibitor causes accumulation of a catalytically active full-length form of caspase-7. Cytosolic extracts from 293 cells were activated with cytochrome c/dATP for the indicated times followed by labeling with KMB01 (left panel) and western blotting with a caspase-7 specific antibody (right panel) as in FIG. 5A. […] (B) The exact same experiment as (A) except extracts from MCF-7 cells were used in place of 293 extracts. (**) indicates forms of caspase-7 that are likely a result of the alternative transcription start site at methionine-45 (C) Quantification of the relative activity of FL-C7 in uninhibited 293 extracts (from FIG. 5A), AB06 treated 293 extracts (from (A)) and uninhibited MCF-7 extracts (from (B)) (D) Inhibitor specificity of full-length and processed forms of caspase-7. Extracts (293) were activated for 5 min with cytochrome c/dATP and then incubated with NP-capped AOMK inhibitors containing the indicated primary amino acid sequences for 5 minutes before KMB01 was added and allowed to label residual caspase active sites for 30 minutes. Samples were analyzed by SDS-PAGE followed by biotin blotting using strepavidin-HRP (left panel) or western blotting for caspase-7 (right panel). Identities of labeled caspases are indicated. (E) Specificity of AB06 after prolonged incubation times. Extracts were treated with AB06 at the indicated concentrations simultaneously with cytochrome c/dATP. At the indicated times after activation, samples were labeled with KMB01 (10 μM) for 30 minutes. Labeled caspases were resolved by SDS-PAGE analysis followed by biotin blotting using strepavidin-HRP.
To further confirm our assignment of the labeled species we treated samples at various activation times with purified recombinant Bir3 domain of XIAP. […]
An additional surprising finding from the inhibitor studies was the overall lack of inhibition of the FL-C7 species by AB06 relative to mature p20 forms of caspase-7. […] Samples were analyzed for active site labeling and protein levels of both full-length and p20 forms of caspase-7 were monitored by western blot (FIG. 6D).
Hypotonic 293 extracts (73 μg of total protein) were activated as described above and allowed to incubate for the indicated times. […] Labeling was carried out for an additional 30 minutes and samples (13.5 μg total protein) were analyzed by SDS-PAGE and biotin blotting as described above.
Hypotonic 293 extracts (73 μg of total protein) were activated at 37° C. for 5 minutes as described above. […] Samples (13.5 μg total protein) were analyzed by SDS-PAGE and biotin blotting as described above

Cc1cccc(C)c1C(=O)OCC(=O)[C@H](CC(=O)O)NC(=O)[C@@H](NC(=O)[C@H](Cc1ccncc1)NC(=O)[C@H](CC(=O)O)NC(=O)Cc1ccc(O)c([N+](=O)[O-])c1)C(C)C [AB06, Np-D-3-V-D-DMBA]
inhibition of FL-C7 labeling: relatively insensitive to inhibition

Cc1cccc(C)c1C(=O)OCC(=O)[C@H](CC(=O)O)NC(=O)[C@@H](NC(=O)[C@H](CCC(=O)O)NC(=O)[C@H](CC(=O)O)NC(=O)Cc1ccc(O)c([N+](=O)[O-])c1)C(C)C [AB09, Np-D-E- V-D-DMBA]
inhibition of FL-C7 labeling: almost totally inhibited

From patent publication US20100068150A1, “Selective Caspase Inhibitors” (The Board of Trustees of the Leland Stanford Junior …, priority 2006, published 2010)
